Experiments:
Conditions in all cases: 48 h
NOMO1 [1] = experiment: cell viability relative to DMSO control; higher = less cytotoxic
Procedure, shortened: (§1)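 NOMO1 or SEM cells were plated at 500 cells/well and P12-Ichikawa cells at 1000 cells/well in 1536-well plates (5 μl), after each leukemia line had been adapted for at least four passages in each medium. Pin dosing delivered library compounds in DMSO at 11 threefold concentrations, 47 μM to 0.79 nM. CellTiter-Glo One luminescence was read after 48 h at 37°C. Viability is reported as a per-plate percentage of DMSO wells, with cell-free wells as background.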

SEM cells [2] = experiment: as above
Procedure, shortened: as §1

P12-Ichikawa [3] = experiment: as above
Procedure, shortened: as §1

NOMO1 [4] = experiment: AUC of viability dose-response curve (% viability x log10 dose units); higher = less sensitive
Procedure, shortened: (§2)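 Leukemia cells adapted to each medium were seeded at 500 or 1000 cells/well in 1536-well plates and dosed with library compounds in DMSO at 11 threefold doses from 47 μM to 0.79 nM for 48 h at 37°C. CellTiter-Glo One luminescence was normalised per plate to DMSO and cell-free wells, then fitted with a four-parameter log-logistic model over log10 doses. Area under the curve was taken from this fit by the trapezoidal rule, with curves above full viability scaled and curves failing quality control removed.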

SEM cells [5] = experiment: as above
Procedure, shortened: as §2

P12-Ichikawa [6] = experiment: as above
Procedure, shortened: as §2

Cc1c(C(=O)Nc2cccc(C(F)(F)F)c2)cc(-c2ccccc2)n1CCCN1CCOCC1
cell viability [%]
Conditions	NOMO1 [1]	P12-Ichikawa [3]	SEM cells [2]
HPLM + 10% dialyzed FBS, 0.000781 µM	104	116	99.2
HPLM + 10% dialyzed FBS, 0.00234 µM	99.5	112	112
HPLM + 10% dialyzed FBS, 0.00702 µM	112	113	106
HPLM + 10% dialyzed FBS, 0.0211 µM	109	112	105
HPLM + 10% dialyzed FBS, 0.0632 µM	97.2	106	111
HPLM + 10% dialyzed FBS, 0.19 µM	113	106	96.3
HPLM + 10% dialyzed FBS, 0.569 µM	129	104	111
HPLM + 10% dialyzed FBS, 1.71 µM	116	99.2	99.5
HPLM + 10% dialyzed FBS, 5.12 µM	105	104	90.3
HPLM + 10% dialyzed FBS, 15.4 µM	95.9	91.7	93.6
HPLM + 10% dialyzed FBS, 46.1 µM	82.5	79.7	62.8
RPMI 5 mM glucose + 10% FBS, 0.000781 µM	107	111	89.6
RPMI 5 mM glucose + 10% FBS, 0.00234 µM	105	109	106
RPMI 5 mM glucose + 10% FBS, 0.00702 µM	111	115	119
RPMI 5 mM glucose + 10% FBS, 0.0211 µM	100	105	116
RPMI 5 mM glucose + 10% FBS, 0.0632 µM	102	113	110
RPMI 5 mM glucose + 10% FBS, 0.19 µM	101	119	101
RPMI 5 mM glucose + 10% FBS, 0.569 µM	96.5	108	122
RPMI 5 mM glucose + 10% FBS, 1.71 µM	92.4	108	101
RPMI 5 mM glucose + 10% FBS, 5.12 µM	91.7	97.1	115
RPMI 5 mM glucose + 10% FBS, 15.4 µM	96.4	88	93.6
RPMI 5 mM glucose + 10% FBS, 46.1 µM	95.2	70.3	50.9
RPMI 5 mM glucose + 10% dialyzed FBS, 0.000781 µM	115	105	104
RPMI 5 mM glucose + 10% dialyzed FBS, 0.00234 µM	107	117	111
RPMI 5 mM glucose + 10% dialyzed FBS, 0.00702 µM	111	114	121
RPMI 5 mM glucose + 10% dialyzed FBS, 0.0211 µM	109	114	113
RPMI 5 mM glucose + 10% dialyzed FBS, 0.0632 µM	108	114	121
RPMI 5 mM glucose + 10% dialyzed FBS, 0.19 µM	117	107	115
RPMI 5 mM glucose + 10% dialyzed FBS, 0.569 µM	111	106	109
RPMI 5 mM glucose + 10% dialyzed FBS, 1.71 µM	111	103	109
RPMI 5 mM glucose + 10% dialyzed FBS, 5.12 µM	109	103	95
RPMI 5 mM glucose + 10% dialyzed FBS, 15.4 µM	91.4	94	92.6
RPMI 5 mM glucose + 10% dialyzed FBS, 46.1 µM	73.3	74.1	45.8

AUC of viability dose-response curve
Conditions	NOMO1 [4]	P12-Ichikawa [6]	SEM cells [5]
HPLM + 10% dialyzed FBS	458	438	454
RPMI 5 mM glucose + 10% FBS	446	449	458
RPMI 5 mM glucose + 10% dialyzed FBS	460	454	446

NC(=O)c1cccc(N)c1
cell viability [%]
Conditions	NOMO1 [1]	P12-Ichikawa [3]	SEM cells [2]
HPLM + 10% dialyzed FBS, 0.000781 µM	116	106	92.8
HPLM + 10% dialyzed FBS, 0.00234 µM	107	105	104
HPLM + 10% dialyzed FBS, 0.00702 µM	119	70.8	38.7
HPLM + 10% dialyzed FBS, 0.0211 µM	114	116	112
HPLM + 10% dialyzed FBS, 0.0632 µM	135	120	116
HPLM + 10% dialyzed FBS, 0.19 µM	134	122	120
HPLM + 10% dialyzed FBS, 0.569 µM	124	117	113
HPLM + 10% dialyzed FBS, 1.71 µM	130	117	129
HPLM + 10% dialyzed FBS, 5.12 µM	126	121	115
HPLM + 10% dialyzed FBS, 15.4 µM	125	111	106
HPLM + 10% dialyzed FBS, 46.1 µM	101	116	118
RPMI 5 mM glucose + 10% FBS, 0.000781 µM	97	101	72.3
RPMI 5 mM glucose + 10% FBS, 0.00234 µM	104	106	106
RPMI 5 mM glucose + 10% FBS, 0.00702 µM	114	67.8	10.3
RPMI 5 mM glucose + 10% FBS, 0.0211 µM	120	121	79.6
RPMI 5 mM glucose + 10% FBS, 0.0632 µM	104	115	84.5
RPMI 5 mM glucose + 10% FBS, 0.19 µM	123	124	97.8
RPMI 5 mM glucose + 10% FBS, 0.569 µM	105	108	82.9
RPMI 5 mM glucose + 10% FBS, 1.71 µM	97.8	117	85.5
RPMI 5 mM glucose + 10% FBS, 5.12 µM	109	120	80.6
RPMI 5 mM glucose + 10% FBS, 15.4 µM	113	117	104
RPMI 5 mM glucose + 10% FBS, 46.1 µM	127	113	81.6
RPMI 5 mM glucose + 10% dialyzed FBS, 0.000781 µM	102	101	79.9
RPMI 5 mM glucose + 10% dialyzed FBS, 0.00234 µM	104	112	115
RPMI 5 mM glucose + 10% dialyzed FBS, 0.00702 µM	114	78.1	27.4
RPMI 5 mM glucose + 10% dialyzed FBS, 0.0211 µM	116	114	95.4
RPMI 5 mM glucose + 10% dialyzed FBS, 0.0632 µM	109	115	102
RPMI 5 mM glucose + 10% dialyzed FBS, 0.19 µM	133	115	98.2
RPMI 5 mM glucose + 10% dialyzed FBS, 0.569 µM	116	124	105
RPMI 5 mM glucose + 10% dialyzed FBS, 1.71 µM	110	120	94.4
RPMI 5 mM glucose + 10% dialyzed FBS, 5.12 µM	112	115	96.3
RPMI 5 mM glucose + 10% dialyzed FBS, 15.4 µM	106	120	117
RPMI 5 mM glucose + 10% dialyzed FBS, 46.1 µM	115	120	99.4

AUC of viability dose-response curve
Conditions	NOMO1 [4]	P12-Ichikawa [6]	SEM cells [5]
HPLM + 10% dialyzed FBS	471	452	436
RPMI 5 mM glucose + 10% FBS	454	451	384
RPMI 5 mM glucose + 10% dialyzed FBS	465	454	442

From the supplement of paper PMC11451515
